# Source: a melting point compilation (Tetko et al.; mined from patent text by program, amines drawn as free bases though some values may be those of a salt)
row,melting point,SMILES
1,243 to 244 °C,O=S(=O)(Nc1ccccc1Oc1cccc2cccnc12)c1ccc(F)cc1
2,208 to 209 °C,NC(N)=Nc1nc(-c2ccc(CNC(=O)CS(=O)Cc3ccco3)o2)cs1 (stereo unspecified)
3,97 to 99 °C,CC(C)C(=O)OC1C(n2ccc(N)nc2=O)OC(COC(=O)c2ccc(Cl)cc2)C1(C#C[Si](C)(C)C)OC(=O)C(C)C (stereo unspecified)
4,66.5 to 68.5 °C,O=C(c1ccc(F)cc1)C1CCN(CCCCl)CC1
5,206 to 207 °C,COCc1ccn2c(C)c(CCc3ccc4nc(N)oc4c3)nc2c1
6,60 to 62 °C,CCCNS(=O)(=O)c1cc(C)c2cc(C(C)C)ccc(C)c1-2
7,177 to 178 °C,N#Cc1ccc(-c2cn(-c3ccc(Br)cc3)c(SCc3cccnc3)n2)cc1
8,124 to 126 °C,CC(=O)c1nc2ccc(C)cc2cc1O
9,229 to 231 °C,O=C(O)C=Cc1cn(CC(C(=O)c2ccc(Cl)cc2Cl)c2ccccc2)cn1 (stereo unspecified)
10,186 to 189 °C,CS(=O)(=O)c1ccc(-c2nn3cc(C(F)(F)F)oc3c2-c2ccc(F)cc2)cc1
11,274 to 278 °C,O=C(O)c1cn2c3c(c(N4CCN(Cc5ccccc5)CC4)ccc3c1=O)CCC2
12,63 to 64 °C,CC(=O)[C@@H]1C(=O)N(C(=O)OC(C)(C)C)[C@@H]1c1ccccc1
13,184 °C,Cc1cc(-c2ccc(C#N)cc2)c(C#N)n1Cc1cnc(Cl)c(CO)c1
14,100 °C,CC(C)[C@H](O)C(=O)NCCc1ccccc1
15,101 to 102 °C,CCCc1c(OCCCCCOc2ccccc2CCC(=O)O)ccc2c1OCC2=O
16,82 to 85 °C,CC1(C)CC(c2ccccc2)c2ccc(OCC3CO3)cc2O1 (stereo unspecified)
17,101 to 102 °C,COC(=O)Cc1ccc(OC)c([N+](=O)[O-])c1
18,160 °C,CCCn1cncc1-c1ccc(O)cc1
19,102 to 103 °C,CCOc1cccc(-c2nc3n(n2)CCc2ccccc2-3)c1

row,melting point,SMILES
1,177 to 178 °C,COc1ccc(S(=O)(=O)NCCc2ccc(C(=O)O)cc2)cc1
2,212 to 214 °C,COc1ccc(-c2ccc(C(=O)Nc3ccc4cc(CN5C(C)(C)CCCC5(C)C)ccc4c3)cc2)cc1
3,199 °C,CCOc1ccc2[nH]cc(C(=O)NCc3ccccc3)c(=O)c2n1
4,90 to 93 °C,CN1CCN(c2ccc(S(=O)(=O)c3ccccc3)c(N)c2)CC1
5,56 to 58 °C,COc1ccc(CN(CCN(C)CCN=C(NC#N)NCCSCc2csc(NC(=N)N)n2)c2ccccn2)cc1
6,91 to 93 °C,CC(C)(C)c1cccc(C[C@@H](NC(=O)c2cccc3c(Cl)cccc23)[C@@H](O)c2cccc(Cl)c2)c1 (racemic)
7,276 to 278 °C,O=C(O)c1ccc(-c2ccc3cc(CCO)c(C45CC6CC(CC(C6)C4)C5)cc3c2)cc1
8,235 to 237 °C,CC(=O)c1ccc(N2Cc3ccccc3C2=O)cc1
9,147 °C,CCCOc1ccc(S(=O)(=O)NC[C@@H](C(=O)NO)N2CCCCC2)cc1
10,71 to 73 °C,CC(=O)SCC(Cc1ccc(N(C)C)cc1)C(=O)Nc1cccc(C(=O)O)c1 (stereo unspecified)
11,221 to 223 °C,Cc1ccc(S(=O)(=O)Nc2cc(C(=O)O)c3c(c2)C(C(=O)O)CCN3)cc1 (stereo unspecified)
12,115 to 116 °C,CCc1cc(C(C)=O)c(O)cc1OCCCCCNC(C)=O
13,257 to 258 °C,O=C(O)c1ccc2c(c1)C(=O)N(c1ccccc1)C2=O
14,174 to 175 °C,OC(c1ccccc1)(c1cccc(Cl)c1)c1ncc[nH]1 (stereo unspecified)
15,155 °C,CCOC(=O)CN1CCN(CCOc2cc3c(Nc4cccc(Br)c4)ncnc3cc2OC)CC1
16,173 to 175 °C,Cn1cc(-c2cccc(N3Cc4cc(C(C)(C)C)ccc4C3=O)c2CO)cc(Nc2ccn(C3CC3)n2)c1=O
17,238 to 242 °C,O=C(O)COc1ccc2cc(-c3cnc(-c4cn(Cc5ccccc5)c5ccccc45)o3)ccc2c1
18,88 to 90 °C,CO[C@]1(c2cccc(OCc3ccc4c(ccc(=O)n4C)c3)c2)CCO[C@@H](C)C1
19,68 to 70 °C,CN(CC(O)c1cccc(OCc2ccccc2)c1)C(=O)c1cnc(N(C)C)nc1-c1ccc(Cl)c(Cl)c1 (stereo unspecified)

row,melting point,SMILES
1,> 360 °C,COc1ccc2nc3[nH]c(=O)[nH]c3cc2c1
2,174 to 176 °C,CC(=O)CS(=O)(=O)NC1(c2ccc(OCc3ccc4ccccc4n3)cc2)CCCCCC1
3,223 to 227 °C,NC(=O)c1nc(-c2ccc(O)cc2)cs1
4,98 to 100 °C,CCOC(=O)c1cnc(C)nc1-c1ccc(OC)c(OC)c1
5,111 to 112 °C,Cc1cc(C(F)(F)F)cc(Oc2ccc(CCNc3ncnc4scnc34)cc2)n1
6,177 °C,CCOC(=O)c1nc(-c2ccc(F)cc2)[nH]c1N=NN(C)C
7,89 to 90 °C,COC(=O)COc1cc(Cl)c(C(=O)CBr)cc1Cl
8,78 to 80 °C,COC(=O)c1c(OC)ccc(N)c1OC
9,175 to 176 °C,NC(=O)C(NC(=O)OCc1ccccc1)C(O)CO (stereo unspecified)
10,79 to 81 °C,COc1ccc2c(c1)NC(c1ccccc1)CO2 (stereo unspecified)
11,186 to 192 °C,Cc1cc(C)nc(N(C(=O)NS(C)(=O)=O)c2ccccc2)n1
12,107 to 109 °C,COC(=O)[C@@H]1[C@H](/C=C/c2ccccc2)N1S(=O)c1ccc(C)cc1 (stereo partly specified)
13,91 °C,C=C(C)C(=O)OCCC#Cc1ccc2c(ccc3cc(OC(=O)C(=C)C)ccc32)c1
14,213 to 214 °C,O=c1[nH]c2ccc(S(=O)CCN3CCC(Cc4ccc(Cl)cc4)CC3)cc2o1 (stereo unspecified)
15,98 to 115 °C,CCOC(=O)c1cc2cccc(OCc3ccccc3)c2cc1O
16,98 °C,CCCCCSc1cc(C(=O)O)cc(N)c1Oc1ccccc1
17,59 to 61 °C,CCOC(=O)/C(F)=C/c1ccc(Br)cc1
18,129 to 130 °C,CCOc1nn(Cc2ccc(OCc3nc(-c4ccco4)oc3C)cc2)cc1CCC(=O)O
19,241 to 242 °C,CS(=O)(=O)CCNC(=O)c1ccc(-c2ccc3cnc(Nc4ccc(N5CCOCC5)cc4)nn23)cc1

# The next lines start with the compound.
row,SMILES,melting point
1,CCOc1cc2c(O)c(C(=O)O)cnc2nc1C,259 to 261 °C
2,C#Cc1ccc(C(=O)OCC)cn1,35 °C
3,CCCc1nc(C)cn1-c1cc(F)ccc1[N+](=O)[O-],36 to 39 °C
4,COc1cc(OC)c([C@@H]2CCCC[C@H]2O)c(OC)c1 (racemic),125 to 127 °C
5,CCCCSC(=S)N1C(CO)Cc2c([nH]c3ccccc23)C1C (stereo unspecified),110 to 113 °C
6,Cc1ccc(NC(=O)N(C)C)cc1,154 to 157 °C
7,CC(CCCC(C)(C)O)C1CCC2C3C=CC4=CC(=O)C=CC4(C)C3CCC12C (stereo unspecified),180 to 182 °C
8,"CC(N)C(=O)Nc1ccc([N+](=O)[O-])cc1C(=O)c1ccccc1Cl (single isomer, unassigned; (+))",132 °C
9,CCC1CC(=O)CC23CCN(C#N)C(Cc4ccc(OC)cc42)C13 (stereo unspecified),141 to 145 °C
10,NC(=O)c1nsc(N)c1C(N)=O,205 °C
11,CC(=O)CCCN1CCC(NC(=O)c2cc(Cl)c(N)c3c2OC(C)(C)C3)CC1,119 °C
12,C=CCOc1ccc(S(=O)(=O)N2CCN(C)CC2)cc1-c1nc2c(CCC)nn(C)c2c(=O)[nH]1,151 to 153 °C
13,Clc1cc(Cl)c(-n2nccc2Cl)c(Cl)c1,96 °C
14,COC(=O)CCC(C)C(=O)O (stereo unspecified),97 to 99 °C
15,O[C@@H]1CN(C2CCCCC2)C[C@@H]1NCc1ccccc1 (relative stereo),108 to 110 °C
16,CN1CCN(C(=O)c2ccc(N)cc2N)CC1,192 °C
17,SC1=Nc2ccccc2SN1,198 to 199 °C
18,CCCO[Si](C)(CCN=C(O)C1(C)C(C)(C(=O)O)C(C)(C(=O)O)C1(C)C(O)=NCC[Si](C)(OCCC)OCCC)OCCC (stereo unspecified),151 °C
19,COc1cc(OC)nc(-c2c(C)[nH]c3ccc(Cl)cc23)n1,179 to 181 °C
20,Clc1nc(C2=NCCN2)[nH]c1Cl,260 °C
21,CS(=O)(=O)NC1CCCOc2ccc([N+](=O)[O-])cc21 (stereo unspecified),96 to 98 °C
22,Cn1c(=O)c(-c2c(Cl)cccc2Cl)cc2cnc(N)nc21,235 to 237 °C

row,SMILES,melting point
1,CCCCCCCCCCCCCCCCCCOC1OCC(CNC(=O)C(F)(F)F)O1 (stereo unspecified),80 °C
2,Cc1cc(SC2=C(O)CC(CCC3CCCO3)(C(C)C)OC2=O)c(C(C)(C)C)cc1CO (stereo unspecified),57 to 59 °C
3,O=C1Nc2ccc(-c3cccc(Cl)c3)cc2C2(CCCC2)O1,140 to 145 °C
4,CC(CO)(CO)C(=O)N1CCOCC1,95 to 97 °C
5,N#Cc1ccncc1OC1SCC(O)C(O)C1O (stereo unspecified),157 °C
6,CCS(=O)c1c(C#N)nn(-c2c(Cl)cc(C(F)(F)F)cc2Cl)c1NC (stereo unspecified),142 °C
7,CSc1ccc([N+](=O)[O-])cc1C(=O)OC(C)(C)C,112 to 113 °C
8,Clc1ccc(NCCCNCC2CCc3ccccc3O2)nn1 (stereo unspecified),108 °C
9,CC(C)(C)ONC(=O)[C@H]1CNCCN1C(=O)OC(C)(C)C,113 to 114 °C
10,CCC(Oc1c(C)cccc1C)C(=O)OC1CC(O)C=C2C=CC(C)C(CCC3CC(O)CC(=O)O3)C21 (mixture of isomers),125 to 127 °C
11,CC(C)(C)CCN1C(=O)C(NC(=O)Nc2ccccc2)C(=O)N(c2ccccc2F)c2ccccc21 (stereo unspecified),271 to 272 °C
12,CCCC12CCC(=O)C=C1c1c(cc(OC)c(Cl)c1Cl)O2 (stereo unspecified),172 to 173 °C
13,CCCCCCCCCCCC1Nc2ccccc2-c2c([N+](=O)[O-])cnn21 (stereo unspecified),92 to 93 °C
14,Nc1c([N+](=O)[O-])cnn1-c1c(Cl)cc(C(F)(F)F)c(F)c1Cl,156 °C
15,CC(=O)c1ccc2c(c1)C(c1ccccc1F)=NC(C)(C)C(=O)N2,59 °C
16,CCCCCCCCCCCC1=NCCN1CCOCCO,58 to 60 °C
17,Cn1ncnc1COc1nc2c(cc1-c1ccsc1)nnn2-c1c(F)cccc1F,171 to 172 °C
18,O=C1CCC(n2cnc3cccc(Cl)c3c2=O)C(=O)N1 (stereo unspecified),308 to 310 °C
19,Oc1ncnc2nc(-c3cccc(Cl)c3)cnc12,> 315 °C
20,OC(Cn1ccnc1)(c1ccc(Cl)cc1)C1(n2cnc(Cl)n2)CC1 (stereo unspecified),231 °C
21,CC1(CSc2ccc(N)c([N+](=O)[O-])c2)CC1(Cl)Cl (stereo unspecified),76 to 78 °C
22,Nc1ncnc2c1ncn2OCC(O)CCP(=O)(O)O (stereo unspecified),265 to 267 °C
